Experimental data reported in US7829665B2 (priority 2005, dated 2010).

Legend:
[1] = target: T1, full-length NS3/NS4A-2 (HCV NS3 protease) (Hepatitis C virus genotype 1a, UniProt P27958); assay: NS3-NS4 protease assay / NS3 inhibition assay (RETS1 substrate, fluorescence kinetic read); assay type: biochemical; conditions: recombinant E. coli or Baculovirus full-length NS3 with NS4A-2; read-out: NS3-NS4 IC50
T1 construct: Recombinant E. coli or Baculovirus full-length NS3 was diluted to 3.33 μM with assay buffer; made in house; host or cells: E. coli or baculovirus (BV) expression system
Summary of the method: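 Full-length NS3 from E. coli (2 nM in assay) or baculovirus (3 nM) was precomplexed with excess NS4A-2 peptide, then preincubated 10 min at room temperature with serially diluted compounds starting at 50 microM. Reaction was started with RETS1 substrate at 8 μM before addition and read kinetically for 30 min (ex 335/em 495 nm). Four-parameter IC50s were converted to Ki by Cheng-Prusoff using Km 2.03 μM (E. coli) or 1.74 μM (BV).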

[2] = test system: HCV sub-genomic replicon in GS4.3 cells (HuH-7 hepatoma cells); assay: Quantitation by ELISA of Neomycin phosphotransferase II (NPTII) in the HCV sub-genomic replicon, GS4.3; assay type: cell-based, hepatitis C virus; conditions: Hepatitis C virus, Huh-7; GS4.3 cells, 72 h incubation, NPTII ELISA; read-out: Replicon EC50
Summary of the method: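 HuH-7 GS4.3 cells carrying HCV sub-genomic replicon 1377/NS3-3′, treated 72 h at 37 °C without G418 with 3-fold dilutions from 10 μM to 56 pM (1% DMSO). NPTII in cell lysates measured by direct ELISA with TMB readout at 450 nm. EC50 from 4-parameter fit of percent DMSO-control signal.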

T1 sequence (P27958 1027-1657): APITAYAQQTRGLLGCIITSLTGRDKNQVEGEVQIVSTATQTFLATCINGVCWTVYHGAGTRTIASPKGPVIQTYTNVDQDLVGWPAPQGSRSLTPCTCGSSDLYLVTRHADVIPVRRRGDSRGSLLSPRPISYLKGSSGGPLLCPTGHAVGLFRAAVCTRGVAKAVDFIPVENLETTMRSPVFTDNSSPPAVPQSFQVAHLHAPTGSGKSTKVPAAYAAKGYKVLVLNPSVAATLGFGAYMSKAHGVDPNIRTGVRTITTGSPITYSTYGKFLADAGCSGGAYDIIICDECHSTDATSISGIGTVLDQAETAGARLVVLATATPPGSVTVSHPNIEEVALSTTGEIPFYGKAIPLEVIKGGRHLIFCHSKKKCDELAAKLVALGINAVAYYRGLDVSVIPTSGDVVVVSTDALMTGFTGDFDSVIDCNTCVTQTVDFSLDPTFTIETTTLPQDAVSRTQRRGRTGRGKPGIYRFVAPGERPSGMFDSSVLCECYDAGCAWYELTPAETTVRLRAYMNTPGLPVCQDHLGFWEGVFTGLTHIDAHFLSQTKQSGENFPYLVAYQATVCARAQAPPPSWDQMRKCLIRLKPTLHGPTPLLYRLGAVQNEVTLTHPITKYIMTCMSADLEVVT

## O=C1N[C@]2(C(=O)NCC3CC3)C[C@H]2/C=C\CCCCC[C@H](NC2CCC2)C(=O)N2C[C@H](OC(=O)N3Cc4cccc(F)c4C3)C[C@@H]12 [Compound 624]
[1]
  IC50: < 10000 nM
[2]
  EC50: < 1000 nM

## CNc1c(NC(=O)[C@@]23C[C@H]2/C=C\CCCCC[C@H](NC(=O)OC(C)(C)C)C(=O)N2C[C@H](OC(=O)N4Cc5cccc(F)c5C4)C[C@H]2C(=O)N3)c(=O)c1=O [Compound 646]
[1]
  IC50: < 1000 nM
[2]
  EC50: > 10000 nM

## CN(C)S(=O)(=O)NC(=O)[C@@]12C[C@H]1/C=C\CCCCC[C@H](NC(=O)OC(C)(C)C)C(=O)N1C[C@H](OC(=O)N3Cc4cccc(Cl)c4C3)C[C@H]1C(=O)N2 [Compound 114]
[1]
  IC50: < 100 nM
[2]
  EC50: < 100 nM

## CC[C@@H]1C[C@H]2C(=O)N[C@]3(C(=O)NS(=O)(=O)C4CC4)C[C@H]3/C=C\CCCCC[C@H](NC(=O)C3CC3)C(=O)N2C1 [Compound 318]
[1]
  IC50: < 1000 nM
[2]
  EC50: > 10000 nM

## C[C@H](NC(=O)O[C@@H]1C[C@H]2C(=O)N[C@]3(C(=O)NS(=O)(=O)C4CC4)C[C@H]3/C=C\CCCCC[C@H](NC(=O)OC(C)(C)C)C(=O)N2C1)c1ccc(F)cn1 [Compound 149]
[1]
  IC50: < 100 nM
[2]
  EC50: > 10000 nM

## O=C(N[C@H]1CCCCC/C=C\[C@@H]2C[C@@]2(C(=O)NS(=O)(=O)c2ccccc2)NC(=O)[C@@H]2C[C@@H](OC(=O)N3CCc4ccccc4C3)CN2C1=O)OC1CCCC1 [Compound 117]
[1]
  IC50: < 100 nM
[2]
  EC50: < 100 nM

## N[C@H]1CCCCC/C=C\[C@@H]2C[C@@]2(C(=O)NCC2CC2)NC(=O)[C@@H]2C[C@@H](OC(=O)N3Cc4cccc(F)c4C3)CN2C1=O [Compound 622]
[1]
  IC50: < 10000 nM
[2]
  EC50: < 10000 nM

## CC(C)(C)OC(=O)N[C@H]1CCCCC/C=C\[C@@H]2C[C@@]2(C(=O)NS(=O)(=O)C2CC2)NC(=O)[C@@H]2C[C@@H](OC(=O)N3CCc4c(Cl)ccc(F)c4C3)CN2C1=O [Compound 260]
[1]
  IC50: < 100 nM
[2]
  EC50: < 100 nM

## CC(C)OC(=O)N[C@H]1CCCCC/C=C\[C@@H]2C[C@@]2(C(=O)NC#N)NC(=O)C2C[C@@H](OC(=O)N3Cc4cccc(F)c4C3)CN2C1=O (stereo partly drawn) [Compound 639]
[1]
  IC50: < 1000 nM
[2]
  EC50: > 10000 nM

## CC(C)(C)NC(=O)N[C@H]1CCCCC/C=C\[C@@H]2C[C@@]2(C(=O)O)NC(=O)C2C[C@@H](OC(=O)N3Cc4cccc(Cl)c4C3)CN2C1=O (stereo partly drawn) [Compound 177]
[1]
  IC50: < 100 nM
[2]
  EC50: < 10000 nM

## CC(C)(C)OC(=O)N[C@H]1CCCCC/C=C\[C@@H]2C[C@@]2(C(=O)NCC2CC2)NC(=O)[C@@H]2C[C@@H](OC(=O)N3Cc4cccc(F)c4C3)CN2C1=O [Compound 603]
[1]
  IC50: < 1000 nM
[2]
  EC50: < 1000 nM

## N[C@H]1CCC(F)(F)CC/C=C\[C@@H]2C[C@@]2(C(=O)NS(=O)(=O)C2CC2)NC(=O)[C@@H]2C[C@@H](OC(=O)N3Cc4cccc(F)c4C3)CN2C1=O [Compound 1003]
[1]
  IC50: < 100 nM
[2]
  EC50: < 1000 nM

## O=C(N[C@H]1CCCCC/C=C\[C@@H]2C[C@@]2(C(=O)NS(=O)(=O)C2CCCCC2)NC(=O)[C@@H]2C[C@@H](OC(=O)N3CCc4ccccc4C3)CN2C1=O)OC1CCCC1 [Compound 189]
[1]
  IC50: < 100 nM
[2]
  EC50: < 1000 nM

## CC(C)(C)OC(=O)N[C@H]1CCCCC/C=C\[C@@H]2C[C@@]2(C(=O)NS(=O)(=O)C2CC2)NC(=O)[C@@H]2C[C@@H](OC(=O)Nc3nc4ccccc4s3)CN2C1=O [Compound 140]
[1]
  IC50: < 100 nM
[2]
  EC50: < 1000 nM

## O=C(CCC(F)(F)F)N[C@H]1CCCCC/C=C\[C@@H]2C[C@@]2(C(=O)O)NC(=O)[C@@H]2C[C@@H](OC(=O)N3Cc4ccccc4C3)CN2C1=O [Compound 136]
[1]
  IC50: < 100 nM
[2]
  EC50: > 10000 nM

## CC(C)(C)OC(=O)N[C@H]1CCCCC/C=C\[C@@H]2C[C@@]2(C(=O)NS(=O)(=O)C2CC2)NC(=O)[C@@H]2C[C@@H](OC(=O)N3Cc4ccc(C(F)(F)F)cc4C3)CN2C1=O [Compound 112]
[1]
  IC50: < 100 nM
[2]
  EC50: < 100 nM

## O=C(N[C@H]1CCCCC/C=C\[C@@H]2C[C@@]2(C(=O)NS(=O)(=O)C2CC2)NC(=O)[C@@H]2C[C@@H](OC(=O)N3Cc4ccc(OCCN5CCOCC5)cc4C3)CN2C1=O)OC1CCCC1 [Compound 132]
[1]
  IC50: < 100 nM
[2]
  EC50: < 100 nM

## CN(Cc1ccccc1)S(=O)(=O)NC(=O)[C@@]12C[C@H]1/C=C\CCCCC[C@H](NC(=O)OC(C)(C)C)C(=O)N1C[C@H](OC(=O)N3Cc4cccc(F)c4C3)C[C@H]1C(=O)N2 [Compound 210]
[1]
  IC50: < 100 nM
[2]
  EC50: < 100 nM

## CC(C)(C)OC(=O)N[C@H]1CCCCC/C=C\[C@@H]2C[C@@]2(C(=O)NS(=O)(=O)C(C)(C)C)NC(=O)[C@@H]2C[C@@H](OC(=O)N3Cc4ccccc4C3)CN2C1=O [Compound 102]
[1]
  IC50: < 100 nM
[2]
  EC50: < 1000 nM

## C[C@@H](NC(=O)[C@@]12C[C@H]1/C=C\CCCCC[C@H](NC(=O)OC(C)(C)C)C(=O)N1C[C@H](OC(=O)N3Cc4cccc(F)c4C3)C[C@H]1C(=O)N2)c1ccc(F)cn1 [Compound 629]
[1]
  IC50: < 1000 nM
[2]
  EC50: < 10000 nM

## CNC(=O)[C@H](NC(=O)[C@@]12C[C@H]1/C=C\CCCCC[C@H](NC(=O)OC(C)(C)C)C(=O)N1C[C@H](OC(=O)N3Cc4cccc(F)c4C3)C[C@H]1C(=O)N2)c1ccc(F)cc1 [Compound 632]
[1]
  IC50: < 1000 nM
[2]
  EC50: < 10000 nM

## O=C1N[C@]2(C(=O)NS(=O)(=O)C3CC3)C[C@H]2/C=C\CCCCC[C@H](Nc2c(N3CCC3)c(=O)c2=O)C(=O)N2C[C@H](OC(=O)N3Cc4cccc(Cl)c4C3)C[C@@H]12 [Compound 241, (2R,6S,13aS,14aR,16aS,Z)-6-(2-(azetidin-1-yl)-3,4-dioxocyclobut-1-enylamino)-14a-(cyclopropylsulfonylcarbamoyl)-5,16-dioxo-1,2,3,5,6,7,8,9,10,11,13a,14,14a,15,16,16a-hexadecahydrocyclopropa[e]pyrrolo[1,2-a][1,4]diazacyclopentadecin-2-yl 4-chloroisoindoline-2-carboxylate]
[1]
  IC50: < 100 nM
[2]
  EC50: < 1000 nM

## O=C1N[C@]2(C(=O)NS(=O)(=O)C3CC3)C[C@H]2/C=C\CCCCC[C@H](Nc2nc(-c3ccccc3)cs2)C(=O)N2C[C@H](OC(=O)N3Cc4cccc(F)c4C3)C[C@@H]12 [Compound 927, (2R,6S,13aS,14aR,16aS,Z)-14a-(cyclopropylsulfonylcarbamoyl)-5,16-dioxo-6-(4-phenylthiazol-2-ylamino)-1,2,3,5,6,7,8,9,10,11,13a,14,14a,15,16,16a-hexadecahydrocyclopropa[e]pyrrolo[1,2-a][1,4]diazacyclopentadecin-2-yl 4-fluoroisoindoline-2-carboxylate]
[1]
  IC50: < 100 nM
[2]
  EC50: < 100 nM

## CC(C)(C)OC(=O)N[C@H]1CCCCC/C=C\[C@@H]2C[C@@]2(C(=O)NC(=O)N2CCOCC2)NC(=O)[C@@H]2C[C@@H](OC(=O)N3Cc4cccc(F)c4C3)CN2C1=O [Compound 234]
[1]
  IC50: < 100 nM
[2]
  EC50: < 100 nM

## O=C(N[C@H]1CCCCC/C=C\[C@@H]2C[C@@]2(C(=O)NS(=O)(=O)c2cccs2)NC(=O)[C@@H]2C[C@@H](OC(=O)N3CCc4ccccc4C3)CN2C1=O)OC1CCCC1 [Compound 190]
[1]
  IC50: < 100 nM
[2]
  EC50: < 100 nM

## CC(C)(C)c1c(N[C@H]2CCCCC/C=C\[C@@H]3C[C@@]3(C(=O)NS(=O)(=O)C3CC3)NC(=O)[C@@H]3C[C@@H](OC(=O)N4Cc5cccc(F)c5C4)CN3C2=O)c(=O)c1=O [Compound 261]
[1]
  IC50: < 100 nM
[2]
  EC50: < 1000 nM

## CC(C)(CO)C(=O)N[C@H]1CCCCC/C=C\[C@@H]2C[C@@]2(C(=O)NS(=O)(=O)C2CC2)NC(=O)[C@@H]2C[C@@H](OC(=O)N3Cc4cccc(F)c4C3)CN2C1=O [Compound 254]
[1]
  IC50: < 100 nM
[2]
  EC50: < 1000 nM
